Results from ChEMBL document CHEMBL3132769, “Fragment growing to retain or alter the selectivity of anchored kinase hinge-binding fragments” (Medchemcomm, 2014).

Experiments:
[1] = molecular target: T1, Mitogen-activated protein kinase 12 (Homo sapiens) (UniProt P53778); experiment: Inhibition of human full length p38 gamma expressed in Escherichia coli cell assessed as substrate phosphorylation using fluorescence-labelled peptides as substrate at 0.06 uM after 90 mins by microfluidic peptide phosphorylation assay
T1 sequence (whole entry): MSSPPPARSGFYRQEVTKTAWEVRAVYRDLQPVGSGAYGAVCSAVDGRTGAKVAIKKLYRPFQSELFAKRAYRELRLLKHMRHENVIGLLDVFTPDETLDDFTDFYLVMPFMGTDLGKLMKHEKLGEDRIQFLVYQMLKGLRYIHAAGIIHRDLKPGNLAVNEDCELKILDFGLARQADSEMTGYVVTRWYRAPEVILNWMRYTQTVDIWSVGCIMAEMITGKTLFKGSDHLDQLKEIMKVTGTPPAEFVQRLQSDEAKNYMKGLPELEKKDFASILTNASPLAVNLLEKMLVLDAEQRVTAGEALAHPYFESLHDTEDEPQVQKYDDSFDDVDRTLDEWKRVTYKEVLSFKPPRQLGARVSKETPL

[2] = molecular target: Ribosomal protein S6 kinase alpha-4 (Homo sapiens) (UniProt O75676); experiment: Inhibition of human full length MSK2 expressed in baculovirus assessed as substrate phosphorylation using fluorescence-labelled peptides as substrate at 0.2 uM after 90 mins by microfluidic peptide phosphorylation assay
Ribosomal protein S6 kinase alpha-4 (Homo sapiens), sequence (O75676 whole entry, looked up, the tested form may be a part): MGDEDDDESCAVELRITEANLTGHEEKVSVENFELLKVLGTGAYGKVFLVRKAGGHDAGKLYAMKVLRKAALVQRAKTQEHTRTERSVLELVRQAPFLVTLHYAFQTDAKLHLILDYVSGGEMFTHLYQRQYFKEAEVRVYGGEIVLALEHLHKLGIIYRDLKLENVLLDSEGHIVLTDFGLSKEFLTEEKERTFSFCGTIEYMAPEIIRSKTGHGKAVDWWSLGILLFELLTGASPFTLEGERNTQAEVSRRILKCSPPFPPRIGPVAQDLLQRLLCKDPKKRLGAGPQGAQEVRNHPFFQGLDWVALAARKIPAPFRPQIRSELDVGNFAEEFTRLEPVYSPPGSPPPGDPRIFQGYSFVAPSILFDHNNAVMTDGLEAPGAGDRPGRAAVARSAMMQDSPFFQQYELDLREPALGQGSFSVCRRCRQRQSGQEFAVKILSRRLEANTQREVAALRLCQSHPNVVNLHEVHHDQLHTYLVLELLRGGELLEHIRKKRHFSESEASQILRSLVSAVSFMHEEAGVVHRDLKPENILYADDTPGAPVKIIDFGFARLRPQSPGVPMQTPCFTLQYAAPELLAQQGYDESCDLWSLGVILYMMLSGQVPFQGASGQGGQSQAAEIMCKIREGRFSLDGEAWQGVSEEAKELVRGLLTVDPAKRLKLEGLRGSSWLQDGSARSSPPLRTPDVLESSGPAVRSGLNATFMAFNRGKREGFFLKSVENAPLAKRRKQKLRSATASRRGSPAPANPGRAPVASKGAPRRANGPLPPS

[3] = molecular target: T2, Serine/threonine-protein kinase Sgk1 (Homo sapiens) (UniProt O00141); experiment: Inhibition of human truncated SGK1 expressed in baculovirus assessed as substrate phosphorylation using fluorescence-labelled peptides as substrate at 2 uM after 90 mins by microfluidic peptide phosphorylation assay
T2 sequence (whole entry): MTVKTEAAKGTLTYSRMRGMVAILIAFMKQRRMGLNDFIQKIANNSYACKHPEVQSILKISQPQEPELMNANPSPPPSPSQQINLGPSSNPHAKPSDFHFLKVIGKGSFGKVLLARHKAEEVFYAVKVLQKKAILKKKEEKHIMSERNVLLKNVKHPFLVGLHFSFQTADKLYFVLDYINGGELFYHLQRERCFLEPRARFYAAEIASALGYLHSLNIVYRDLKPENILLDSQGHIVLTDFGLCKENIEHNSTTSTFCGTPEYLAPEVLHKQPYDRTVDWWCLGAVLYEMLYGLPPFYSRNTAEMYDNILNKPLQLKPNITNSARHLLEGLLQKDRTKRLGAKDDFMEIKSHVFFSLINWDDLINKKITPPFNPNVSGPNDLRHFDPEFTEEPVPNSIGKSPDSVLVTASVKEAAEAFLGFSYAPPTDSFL

[4] = molecular target: T3, Serine/threonine-protein kinase 3 (Homo sapiens) (UniProt Q13188); experiment: Inhibition of human full length MST2 expressed in baculovirus assessed as substrate phosphorylation using fluorescence-labelled peptides as substrate at 2 uM after 90 mins by microfluidic peptide phosphorylation assay
T3 sequence (whole entry): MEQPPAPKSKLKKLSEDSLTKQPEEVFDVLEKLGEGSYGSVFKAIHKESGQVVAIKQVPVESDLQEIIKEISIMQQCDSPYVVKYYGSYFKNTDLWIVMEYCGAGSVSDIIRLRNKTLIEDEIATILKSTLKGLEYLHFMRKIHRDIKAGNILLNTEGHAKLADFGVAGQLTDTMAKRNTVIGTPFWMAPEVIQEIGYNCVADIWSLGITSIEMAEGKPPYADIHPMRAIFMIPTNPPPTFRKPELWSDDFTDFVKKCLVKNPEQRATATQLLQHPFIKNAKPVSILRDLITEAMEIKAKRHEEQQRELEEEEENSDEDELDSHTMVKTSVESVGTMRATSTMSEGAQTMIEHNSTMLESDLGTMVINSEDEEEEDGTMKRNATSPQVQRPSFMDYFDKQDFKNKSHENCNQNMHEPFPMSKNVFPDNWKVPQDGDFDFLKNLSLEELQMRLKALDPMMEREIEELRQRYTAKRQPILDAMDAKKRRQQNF

[5] = system: Tyrosine-protein kinase ABL1 (Homo sapiens), P00519 [H396P]; experiment: Inhibition of human truncated ABL H396P mutant expressed in baculovirus assessed as substrate phosphorylation using fluorescence-labelled peptides as substrate at […] after 90 mins by microfluidic peptide phosphorylation assay
[6] = molecular target: Serine/threonine-protein kinase MARK2 (Homo sapiens) (UniProt Q7KZI7); experiment: Inhibition of human full length MARK2 expressed in baculovirus assessed as substrate phosphorylation using fluorescence-labelled peptides as substrate at 95 uM after 90 mins by microfluidic peptide phosphorylation assay
Serine/threonine-protein kinase MARK2 (Homo sapiens), sequence (Q7KZI7 whole entry): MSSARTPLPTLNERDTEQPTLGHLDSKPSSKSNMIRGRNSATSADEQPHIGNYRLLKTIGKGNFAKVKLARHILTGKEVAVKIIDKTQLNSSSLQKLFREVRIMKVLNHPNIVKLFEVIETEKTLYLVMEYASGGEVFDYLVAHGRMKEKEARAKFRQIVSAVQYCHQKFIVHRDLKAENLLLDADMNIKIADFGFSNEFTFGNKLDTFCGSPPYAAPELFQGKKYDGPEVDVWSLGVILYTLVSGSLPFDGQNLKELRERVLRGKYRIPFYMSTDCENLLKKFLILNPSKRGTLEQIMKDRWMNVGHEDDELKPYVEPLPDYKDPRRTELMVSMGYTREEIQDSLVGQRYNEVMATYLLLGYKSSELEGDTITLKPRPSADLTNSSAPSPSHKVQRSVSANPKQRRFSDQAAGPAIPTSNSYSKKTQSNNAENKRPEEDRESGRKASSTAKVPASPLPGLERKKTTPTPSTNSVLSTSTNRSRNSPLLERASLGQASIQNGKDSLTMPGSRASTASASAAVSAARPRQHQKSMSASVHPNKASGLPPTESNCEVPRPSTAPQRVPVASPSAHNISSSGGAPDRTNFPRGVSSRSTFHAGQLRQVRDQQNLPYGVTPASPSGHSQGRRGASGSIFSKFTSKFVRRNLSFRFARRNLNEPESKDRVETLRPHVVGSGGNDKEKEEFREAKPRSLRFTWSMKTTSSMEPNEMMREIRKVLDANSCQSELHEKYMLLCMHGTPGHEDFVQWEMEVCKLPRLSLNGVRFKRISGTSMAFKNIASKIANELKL

[7] = molecular target: T4, Protein kinase C zeta type (Homo sapiens) (UniProt Q05513); experiment: Inhibition of human full length PKC zeta expressed in baculovirus assessed as substrate phosphorylation using fluorescence-labelled peptides as substrate at 95 uM after 90 mins by microfluidic peptide phosphorylation assay
T4 sequence (whole entry): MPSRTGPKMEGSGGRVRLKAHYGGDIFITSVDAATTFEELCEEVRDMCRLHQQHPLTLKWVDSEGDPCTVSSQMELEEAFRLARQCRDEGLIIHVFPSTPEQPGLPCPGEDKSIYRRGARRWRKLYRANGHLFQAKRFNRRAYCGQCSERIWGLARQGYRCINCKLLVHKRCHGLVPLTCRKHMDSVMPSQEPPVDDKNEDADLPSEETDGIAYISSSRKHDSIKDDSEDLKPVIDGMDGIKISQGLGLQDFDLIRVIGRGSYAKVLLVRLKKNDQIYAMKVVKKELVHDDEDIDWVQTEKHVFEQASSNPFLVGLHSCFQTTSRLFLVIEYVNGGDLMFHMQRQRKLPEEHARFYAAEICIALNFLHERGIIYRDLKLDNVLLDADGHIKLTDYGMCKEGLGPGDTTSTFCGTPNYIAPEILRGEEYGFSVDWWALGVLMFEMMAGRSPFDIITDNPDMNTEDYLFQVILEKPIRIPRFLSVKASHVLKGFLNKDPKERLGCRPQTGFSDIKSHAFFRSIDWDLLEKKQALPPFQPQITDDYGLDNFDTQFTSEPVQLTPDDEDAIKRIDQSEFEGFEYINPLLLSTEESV

[8] = molecular target: Mitogen-activated protein kinase 3 (Homo sapiens) (UniProt P27361); experiment: Inhibition of human full length ERK1 expressed in Escherichia coli cell assessed as substrate phosphorylation using fluorescence-labelled peptides as substrate at 1000 uM after 90 mins by microfluidic peptide phosphorylation assay
Mitogen-activated protein kinase 3 (Homo sapiens), sequence (P27361 whole entry, canonical isoform): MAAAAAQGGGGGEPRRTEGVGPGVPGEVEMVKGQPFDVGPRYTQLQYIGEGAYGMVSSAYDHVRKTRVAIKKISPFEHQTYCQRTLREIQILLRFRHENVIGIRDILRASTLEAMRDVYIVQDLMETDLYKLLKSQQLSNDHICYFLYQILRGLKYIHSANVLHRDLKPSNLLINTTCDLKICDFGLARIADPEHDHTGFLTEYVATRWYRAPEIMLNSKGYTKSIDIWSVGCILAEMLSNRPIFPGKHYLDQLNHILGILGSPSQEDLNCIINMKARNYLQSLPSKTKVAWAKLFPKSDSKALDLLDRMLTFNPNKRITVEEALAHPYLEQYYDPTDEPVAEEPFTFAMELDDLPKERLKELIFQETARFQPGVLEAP

[9] = molecular target: Casein kinase I isoform alpha (Homo sapiens) (UniProt P48729); experiment: Inhibition of human full length CSNK1A1 expressed in baculovirus assessed as substrate phosphorylation using fluorescence-labelled peptides as substrate at 1000 uM after 90 mins by microfluidic peptide phosphorylation assay
Casein kinase I isoform alpha (Homo sapiens), sequence (P48729 2-337 limits assumed): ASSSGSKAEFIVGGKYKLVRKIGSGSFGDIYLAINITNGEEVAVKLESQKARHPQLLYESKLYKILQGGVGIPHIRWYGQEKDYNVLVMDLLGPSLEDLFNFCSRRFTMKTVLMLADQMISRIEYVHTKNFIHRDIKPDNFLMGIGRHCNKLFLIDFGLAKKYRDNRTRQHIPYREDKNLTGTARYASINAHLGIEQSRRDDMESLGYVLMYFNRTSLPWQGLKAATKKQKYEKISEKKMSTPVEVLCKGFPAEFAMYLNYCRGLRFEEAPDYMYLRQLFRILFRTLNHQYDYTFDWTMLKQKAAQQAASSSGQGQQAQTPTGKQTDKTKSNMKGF

[10] = molecular target: Serine/threonine-protein kinase pim-1 (Homo sapiens) (UniProt P11309); experiment: Inhibition of human full length PIM1 expressed in baculovirus assessed as substrate phosphorylation using fluorescence-labelled peptides as substrate at 420 uM after 90 mins by microfluidic peptide phosphorylation assay
Serine/threonine-protein kinase pim-1 (Homo sapiens), sequence (P11309 whole entry, looked up, the tested form may be a part): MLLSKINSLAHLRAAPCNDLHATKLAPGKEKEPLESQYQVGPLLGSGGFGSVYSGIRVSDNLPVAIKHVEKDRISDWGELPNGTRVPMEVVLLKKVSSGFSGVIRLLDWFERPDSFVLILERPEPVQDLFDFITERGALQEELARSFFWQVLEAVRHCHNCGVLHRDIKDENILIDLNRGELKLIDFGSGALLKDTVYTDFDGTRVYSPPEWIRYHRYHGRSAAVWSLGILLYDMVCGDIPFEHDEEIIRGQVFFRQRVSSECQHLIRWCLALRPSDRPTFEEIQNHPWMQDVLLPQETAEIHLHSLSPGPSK

[11] = molecular target: Protein kinase C beta type (Homo sapiens) (UniProt P05771); experiment: Inhibition of human truncated PKC beta1 expressed in baculovirus assessed as substrate phosphorylation using fluorescence-labelled peptides as substrate at 420 uM after 90 mins by microfluidic peptide phosphorylation assay
Protein kinase C beta type (Homo sapiens), sequence (P05771 2-671 limits assumed): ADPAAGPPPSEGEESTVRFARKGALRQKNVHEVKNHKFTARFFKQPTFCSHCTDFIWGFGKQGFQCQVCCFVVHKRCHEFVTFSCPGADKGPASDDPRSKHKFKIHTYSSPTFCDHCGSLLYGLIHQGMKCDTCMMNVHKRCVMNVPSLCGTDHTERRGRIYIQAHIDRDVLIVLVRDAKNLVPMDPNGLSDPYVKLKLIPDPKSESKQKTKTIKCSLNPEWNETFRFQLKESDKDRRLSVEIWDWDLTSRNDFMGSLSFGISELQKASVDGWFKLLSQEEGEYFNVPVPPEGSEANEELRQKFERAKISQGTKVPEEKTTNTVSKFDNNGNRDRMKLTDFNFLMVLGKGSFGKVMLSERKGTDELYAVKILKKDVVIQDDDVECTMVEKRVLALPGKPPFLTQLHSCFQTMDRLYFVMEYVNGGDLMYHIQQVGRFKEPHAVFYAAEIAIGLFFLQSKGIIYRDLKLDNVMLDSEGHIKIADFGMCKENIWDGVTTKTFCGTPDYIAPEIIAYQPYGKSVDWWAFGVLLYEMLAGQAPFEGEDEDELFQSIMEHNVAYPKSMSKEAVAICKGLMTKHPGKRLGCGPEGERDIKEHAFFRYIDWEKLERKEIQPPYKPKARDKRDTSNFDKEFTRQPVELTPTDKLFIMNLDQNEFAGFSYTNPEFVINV

SMILES: NC1(Cc2ccc(Cl)cc2)CCN(c2ncnc3[nH]ccc23)CC1
- inhibition [1]: 0%

SMILES: Clc1ccc(C2(c3ccc(-c4ncnc5[nH]cnc45)cc3)CCNCC2)cc1
- inhibition [2]: 82.5%

SMILES: NC1CCN(c2ncnc3[nH]ccc23)CC1
- inhibition [3]: 27%
- inhibition [4]: 17.5%

SMILES: COC(=O)c1cnc(Nc2cnc(C#N)cn2)cc1NCC1CCNCC1
- inhibition [5]: 1%

SMILES: NCCc1ccc(-c2ncnc3[nH]cnc23)cc1
- inhibition [6]: 67%
- inhibition [7]: 0%

SMILES: c1cnc2[nH]ccc2c1
- inhibition [8]: 36%
- inhibition [9]: 73.5%

SMILES: c1nc(N2CCOCC2)c2nc[nH]c2n1
- inhibition [10]: 31.5%
- inhibition [11]: 70%
